Numbered stars: 1 amine (or outer) side, 2 acyl side, 3 side chain; on linkers, the order of the positions; unused ones are H or OH. Bridge positions count the residues as written; N and C are the ends. Square brackets hold non-standard residues; d marks the D form. Ends that are not written are not given here. Peptide text beside a SMILES is read from it. * marks the point of attachment. Orn(4R-OH,5R-OH) = O=C([C@H](C[C@@H](O)[C@@H](O)N[*:3])N[*:1])[*:2]; hTyr(3S-OH,4S-OH) = N[C@H](C(=O)O)[C@H](O)[C@@H](O)c1ccc(O)cc1; Pro(3S-OH,4S-Me) = C[C@H]1CN[C@H](C(=O)O)[C@H]1O; Benzoyl(4-octyloxy) = CCCCCCCCOc1ccc(C(=O)*)cc1; Hyp = O=C(O)[C@@H]1C[C@@H](O)CN1 Some results are limits rather than exact numbers.

In assay [1] the test system is Malassezia furfur. Briefly: Inhibition of Malassezia furfur growth test (optical density and colony-forming units), Examples 1 and 2. It is filed as cell-based. To be noted: solution in DMSO, 25 μM; for colony-forming units: 10 μl plated out. The method, then: Growth medium: M472-Pitysporum medium according to DSMZ
(§1) The components were sterilized at 121° C., 1 bar superatmospheric pressure for 20 minutes.
2 g/l of olive oil were sterilized by filtration and, after autoclaving, added to the other components.
(§2) Since it was a two-phase medium, the complete medium was treated with sonication in order to enlarge the phase boundary.
For agar plates, if appropriate, […] of agar agar were added to the medium.
The growth test was carried out as follows: A shake flask with M472-Pitysporum medium was inoculated with M. furfur and incubated with shaking overnight at 30° C. and 200 rpm.
A 96-well microtiter plate was filled with in each case 100 μl of M472-Pitysporum medium and inoculated with M. furfur suspension of the overnight culture. The M. furfur suspension was adjusted at the start of the experiment to an optical density, measured at 620 nm, of 0.02. The concentrates of the inhibitor solutions were 1 mM in water or DMSO.
(§3) The growth of the following batches was compared by measuring the optical density:
M. furfur suspension without the addition of an inhibitor.
This was to exclude that an inhibition is attributable merely to the effect of the DMSO, or a false positive result being observed.
M. furfur suspension and addition of an aqueous P18 solution with a final concentration of 25 μM.
M. furfur suspension and addition of a P18 solution in DMSO with a final concentration of 25 μM.
M. furfur suspension and addition of a zinc pyrithione (ZPT, Sigma-Aldrich) solution in DMSO with a final concentration of 25 μM.
M. furfur suspension and addition of a Ketoconazole (Sigma-Aldrich) solution in DMSO with a final concentration of 25 μM.
(§4) The microtiter plate was incubated with shaking at 30° C.
[…] The colony-forming units (CFU) were then determined by plating out 10 μl from each of the suspensions and, after incubation for 6 days, counting the colonies. The CFU was determined in order to exclude an influence of the two-phase medium and also the growth form of M. furfur on the optical density. […] The experiments were carried out at least in triple determinations and independently repeated.
For this, the procedure was as described in Example 1. 1 mM stock solutions of the fusion peptide P18, magainin 2 and cecropin A in DMSO were prepared. The final concentrations of the peptides in the growth experiments were 25 μM. The same amount of DMSO was likewise added to the suspension without inhibitor in order to exclude a growth-inhibiting effect of the DMSO.
The growth of the following mixtures was compared by measuring the optical density:
This was to exclude that an inhibition is attributable merely to the effect of the DMSO.
M. furfur suspension and addition of a magainin 2 solution in DMSO with a final concentration of 25 μM.
M. furfur suspension and addition of a cecropin A solution in DMSO with a final concentration of 25 μM.
M. furfur suspension and addition of a peptide P18 (SEQ ID NO3) solution in DMSO with a final concentration of 25 μM.

For another assay, the system named is Candida albicans. To be noted: cited from earlier work.
In assay [2] the test system is Malassezia furfur. To be noted: cited from earlier work; for growth inhibition of M. furfur (in words): 25 μM, Lopez-Garcia et al., 2006.
Assay [3] deals with Malassezia furfur. Briefly: Incubation times with P18 from 5 minutes to 1 hour, CFU of M. furfur, compared to Zincpyrithione. It is filed as cell-based. The protocol: Since growth inhibition of M. furfur by the peptide P18 (P18 peptide sequence H-KWKLFKKIPKFLHLAKKF-NH2; SEQ ID NO: 3) had so far only been analyzed over incubation times of more than one hour, now the effect of the peptide P18 within the first minutes of incubation (5 minutes, 10 minutes and 20 minutes) up to the first hour after adding to the M. furfur overnight culture was tested and compared to the reference substance Zincpyrithione (Sigma Aldrich). For this, the peptide P18 and the reference substance Zincpyrithione were used in concentrations of 100 μM, 200 μM and 500 μM. The experiments were carried out as follows:
(§5) Growth medium: M472-Pityrosporum medium according to DSMZ
as §1
(§6) 2 g/L of olive oil (sterilized by filtration and, after autoclaving, added to the other components)
as §2
(§7) For agar plates, if appropriate, 150 g/L of agar agar were added to the medium.
(§8) The growth test was carried out as follows: A shake flask with M472-Pityrosporum medium was inoculated with M. furfur and incubated with shaking overnight at 30° C. and 200 rpm.
A 96-well microtiter plate was filled with in each case 100 μl of M472-Pityrosporum medium and inoculated with M. furfur suspension of the overnight culture. The M. furfur suspension was adjusted at the start of the experiment to an optical density, measured at 600 nm, of 0.1.
The growth of the following batches was compared:
M. furfur suspension and addition of the peptide P18 with a final concentration of 100 μM, plating out after 5 minutes, 10 minutes, 20 minutes and 60 minutes
M. furfur suspension and addition of the peptide P18 with a final concentration of 200 μM plating out after 5 minutes, 10 minutes, 20 minutes and 60 minutes
M. furfur suspension and addition of the peptide P18 with a final concentration of 500 μM plating out after 5 minutes, 10 minutes, 20 minutes and 60 minutes
M. furfur suspension and addition of Zincpyrithione with a final concentration of 100 μM plating out after 5 minutes, 10 minutes, 20 minutes and 60 minutes
M. furfur suspension and addition of Zincpyrithione with a final concentration of 200 μM plating out after 5 minutes, 10 minutes, 20 minutes and 60 minutes
M. furfur suspension and addition of Zincpyrithione with a final concentration of 500 μM plating out after 5 minutes, 10 minutes, 20 minutes and 60 minutes
as §4
After the incubation times indicated above, the colony-forming units (CFU) were determined by plating out 50 μl from each of the suspensions and, after incubation for 6 days, counting the colonies. The CFU was determined in order to exclude an influence of the two-phase medium and also the growth form of M. furfur on the optical density. The experiments were independently repeated.

Assay [4] concerns Malassezia furfur. Briefly: Growth inhibition of Malassezia furfur with equal concentrations (% by weight) of P18, Zincpyrithione, Climbazole and Ketoconazole, CFU. The assay is classed as cell-based. As to conditions: 362 μM final conc., mean ± SD. The method, then: as §5, §1, §6, §2, §7, §8
A 96-well microtiter plate was filled with in each case 100 μl of M472-Pityrosporum medium and inoculated with M. furfur suspension of the overnight culture. The M. furfur suspension was adjusted at the start of the experiment to an optical density, measured at 600 nm, of 0.02. The concentrates of the inhibitor solutions were 1 mM in DMSO for the peptide P18 and 10 mM in DMSO for Zincpyrithione, Ketoconazole and Climbazole. The DMSO final concentrations were maintained the same in all experiments. This means that a corresponding volume of DMSO was added to the mixture in the case of a higher concentration of Zincpyrithione, Ketoconazole or Climbazole concentrate in order to ensure comparability to the mixtures containing P18.
as §3
M. furfur suspension and addition of P18 solution with a final concentration of 50 μM (equal to 0.0115% (w/w))
M furfur suspension and addition of Zincpyrithione (ZPT) solution with a final concentration of 362 μM (comparison to the mixture containing 50 μM of the peptide P18)
M furfur suspension and addition of Ketoconazole solution with a final concentration of 216 μM (comparison to the mixture containing 50 μM of the peptide P18)
M furfur suspension and addition of Climbazole solution with a final concentration of 390 μM (comparison to the mixture containing 50 μM of the peptide P18)
as §4
After 24 hours of incubation, the colony-forming units (CFU) were determined by plating out 10 μl of medium from each of the suspensions on agar plates. After incubation for 6 days, the colonies on the plates were counted. The CFU was determined in order to exclude an influence of the two-phase medium and also the growth form of M. furfur on the optical density. The experiments were carried out in at least two independent experiments, each with double determination.

In the case of `CC(=O)N1CCN(c2ccc(OCC3COC(Cn4ccnc4)(c4ccc(Cl)cc4Cl)O3)cc2)CC1` (stereo not drawn) [Ketoconazole, reference compound], the optical density in the assay on Malassezia furfur [1] (incubation time 0 h) was determined as 0; with Malassezia furfur [1] (incubation time 16 h) it was 0; in the assay on Malassezia furfur [1] (incubation time 24 h) it was 0.004; with Malassezia furfur [1] (incubation time 40 h), 0.013. Also, the results for the colony-forming units in the assay with Malassezia furfur [1] (incubation time 16 h), in the assay with Malassezia furfur [1] (incubation time 24 h) and in the assay on Malassezia furfur [1] (incubation time 40 h) were 80, 22 and 90, respectively.
On to `CCCCCCCCOc1ccc(C(=O)N[C@H]2C[C@@H](O)[C@@H](O)NC(=O)[C@@H]3[C@@H](O)[C@@H](C)CN3C(=O)[C@H]([C@@H](C)O)NC(=O)[C@H]([C@H](O)[C@@H](O)c3ccc(O)cc3)NC(=O)[C@@H]3C[C@@H](O)CN3C(=O)[C@H]([C@@H](C)O)NC2=O)cc1` [cilofungin] ({Benzoyl(4-octyloxy)}-[Orn(4R-OH,5R-OH)]T[Hyp][hTyr(3S-OH,4S-OH)]T[Pro(3S-OH,4S-Me)]; lactam 1-C), for which the “C. albicans strains that did not grow” value with Candida albicans (cilofungin concentration of 0.62 μg/ml, Hanson et al. 1989) was 76%. In the assay with Malassezia furfur [2] (0.62 μg/ml, Hanson et al. 1989), the “inhibition of M. furfur (in words)” value is recorded as “not inhibited”.
“Cecropin P1 (SWLSKTAKKLENSAKKRISEGIAIAIQGGPR; Cecropin-P1; UniProt P14661 14-44, looked up)”: the “growth inhibition of M. furfur (in words)” value in the assay with Malassezia furfur [2] is “moderate antifungal effect”.
Regarding basic phytosphingosines, the “concentration inhibiting M. furfur” value with Malassezia furfur [2] (Nenoff et al., 2002) was 6250 µg/mL.
As to “cecropin A (KWKLFKKIEKVGQNIRDGIIKAGPAVAVVGQATQIAK; ends and bridges not checked; UniProt P01507 27-63, looked up) [peptide of 37 amino acids from Hyalophora cecropia, reference compound]”, the CFU in the assay on Malassezia furfur [1] (incubation time 64 h) and in the assay on Malassezia furfur [1] (incubation time 72 h) was greater than 5000 in each case.
Turning to magainin 2 [reference compound], the CFU in the assay with Malassezia furfur [1] (incubation time 64 h) and in the assay on Malassezia furfur [1] (incubation time 72 h) was >10 000 each time. Moreover, the “growth inhibition of M. furfur (in words)” value in the assay with Malassezia furfur [2] is “comparably better effect”.
Regarding phytosphingosine salts, the “sensitivity of M. furfur (in words)” value with Malassezia furfur [2] (Nenoff et al., 2002) is on record as “appeared to be resistant”.
For phytosphingosines, the “concentrations inhibiting Candida albicans” value in the assay with Candida albicans (Nenoff et al., 2002) is 152 to 269 µg/mL.
As for “zinc pyrithione [ZPT, reference compound]”, the optical density in the assay with Malassezia furfur [1] (incubation time 0 h), in the assay with Malassezia furfur [1] (incubation time 16 h), in the assay on Malassezia furfur [1] (incubation time 24 h) and with Malassezia furfur [1] (incubation time 40 h) was 0 each time. The colony-forming units in the assay with Malassezia furfur [1] (incubation time 16 h) came out at 42; in the assay on Malassezia furfur [1] (incubation time 24 h) it was 22; in the assay on Malassezia furfur [1] (incubation time 40 h), 28; in the assay on Malassezia furfur [4] (incubation time 24 h), 60 ± 40; in the assay on Malassezia furfur [4] (incubation time 40 h), 26 ± 7. Moreover, the “colony-forming units after the indicated incubation time” value in the assay with Malassezia furfur [3] (final concentration 100 μM, 5 minutes) is recorded as greater than 1000; in the assay with Malassezia furfur [3] (final concentration 100 μM, 10 minutes) it was greater than 1000; in the assay with Malassezia furfur [3] (final concentration 100 μM, 20 minutes) it was greater than 1000; in the assay on Malassezia furfur [3] (final concentration 100 μM, 60 minutes) it was greater than 1000; in the assay with Malassezia furfur [3] (final concentration 200 μM, 5 minutes), greater than 1000; in the assay with Malassezia furfur [3] (final concentration 200 μM, 10 minutes), greater than 1000. Besides, the “colony-forming units after the indicated incubation time” value is recorded as greater than 1000 in the assay with Malassezia furfur [3] (final concentration 200 μM, 20 minutes); greater than 1000 with Malassezia furfur [3] (final concentration 200 μM, 60 minutes); greater than 1000 in the assay with Malassezia furfur [3] (final concentration 500 μM, 5 minutes); greater than 1000 in the assay on Malassezia furfur [3] (final concentration 500 μM, 10 minutes); greater than 1000 in the assay on Malassezia furfur [3] (final concentration 500 μM, 20 minutes); greater than 1000 in the assay with Malassezia furfur [3] (final concentration 500 μM, 60 minutes).

The values are drawn from patent publication US8765688B2, “Anti-dandruff compositions containing peptides” (priority 2007, dated 2014).
